Read-outs that look alike come from different tables or passages of the source. Where no end group is shown, it is not given here. [ ]: non-standard residue; d: D form. pT = C[C@@H](OP(=O)(O)O)[C@H](N)C(=O)O; pS = N[C@@H](COP(=O)(O)O)C(=O)O
Key:
HCoV-229E [1] = experiment: High-content screen of GSK3β-focused library in HCoV-229E infected Huh-7.5.1 cells (intracellular dsRNA); type: cell-based, human coronavirus 229E (HCoV-229E); details: Human coronavirus 229E, single dose of 10 μM, Z′ 0.7
SARS-CoV-2 [2] = experiment: High-content screen of GSK3β-focused library in SARS-CoV-2 infected Huh-7.5.1 cells (dsRNA or nucleocapsid); type: cell-based; details: for inhibition at 10 µM: Severe acute respiratory syndrome coronavirus 2, single dose of 10 μM, Huh-7.5.1 cells; for Activity (SARS-CoV-2): see TABLE A
Huh-7.5.1 cells = details: single dose of 10 μM
Protocol: High content screening methodology and parameters. Monitoring of the total number of cells (based on nuclei staining) and number of virus infected cells (based on dsRNA and Nucleocapsid staining) was performed using the CellInsight CX7™ High Content Screening platform (Thermo Fisher™), as previously described (33042061). Shortly, nuclei are identified and counted using the 350′461 nm wavelength (Hoechst 33342™); cell debris and other particles are deducted based on a size filter tool. A Region of Interest (ROI, or “circle”) is then drawn around each host cell and validated against the bright field image to correspond with host cell membranes. The ROI encompasses the “spots”, where dsRNA (485/521 nm wavelength) and SARS-CoV-2 nucleocapsid (533/588 nm wavelength) are localized. Finally, the software (HCS Studio Cell Analysis Software™, version 4.0) identifies, counts and measures the pixel area and intensity of the spots within each circle. The fluorescent spot area measured within each cell (circle) is then added and quantified for each well. The total circle spot intensity of each well corresponds to the viral load, and is normalized to non-infected cells, and to cells infected with no compound. Nuclei stain (Hoechst 33342™) was used to quantify cell loss (due to cytotoxicity or loss of adherence), and to normalize the changes in viral load resulting from a decrease in cell numbers.

SARS-CoV-2 [3] = experiment: Dose-response of SARS-CoV-2 viral load (intracellular N protein) in Huh-7.5.1 cells; type: cell-based; details: Severe acute respiratory syndrome coronavirus 2, Huh-7.5.1, Huh-7.5.1 cells, intracellular N protein; read-out: ED50 (SARS-CoV-2)
HCoV-229E [4] = experiment: Dose-response of HCoV-229E viral load (dsRNA) in Huh-7.5.1 cells; type: cell-based, human coronavirus 229E (HCoV-229E); details: Human coronavirus 229E, read-out: ED50 (HCoV-229E)
SARS-CoV-2 [5] = system: SARS-CoV-2; set-up: effect on N protein phosphorylation and SARS-CoV-2 replication: dose or concentration left out as unconfirmed; details: cited from earlier work
[6] = molecular target: cAMP-dependent protein kinase catalytic subunit-alpha (PKACa) (Homo sapiens, UniProt P17612); experiment: In vitro phosphorylation of nucleocapsid peptides, ADP-Glo, PKACa; type: biochemical; details: peptide ~250 μM, 250 μM ATP, 30 min at 30° C.; duplicate measurements
[7] = molecular target: T1, protein kinase C-alpha (PKC α) (Homo sapiens, UniProt P17252); experiment: In vitro phosphorylation of nucleocapsid peptides, ADP-Glo, PKCa; type: biochemical; details: for Relative Phosphorylation to No Kinase Control, PKCa: Mean ± S.Dev. (n = 3), no kinase control = 100; for Relative Phosphorylation to Autophosphorylation Control (set at 100), PKCa: peptide ~250 μM, 250 μM ATP, 30 min at 30° C., duplicate measurements
T1 construct: GST; purchased SignalChem P61-18G

[8] = molecular target: T2, glycogen synthase kinase-3-beta (Homo sapiens, UniProt P49841); experiment: In vitro phosphorylation of nucleocapsid peptides, ADP-Glo, GSK3b; type: biochemical; details: for Relative Phosphorylation to No Kinase Control, GSK3b: Mean ± S.Dev. (n = 3), no kinase control = 100; for Relative Phosphorylation to Autophosphorylation Control (set at 100), GSK3b: peptide ~250 μM, 250 μM ATP, 30 min at 30° C., duplicate measurements
T2 construct: GST; purchased SignalChem Go9-10G
T2 sequence (P49841 whole entry): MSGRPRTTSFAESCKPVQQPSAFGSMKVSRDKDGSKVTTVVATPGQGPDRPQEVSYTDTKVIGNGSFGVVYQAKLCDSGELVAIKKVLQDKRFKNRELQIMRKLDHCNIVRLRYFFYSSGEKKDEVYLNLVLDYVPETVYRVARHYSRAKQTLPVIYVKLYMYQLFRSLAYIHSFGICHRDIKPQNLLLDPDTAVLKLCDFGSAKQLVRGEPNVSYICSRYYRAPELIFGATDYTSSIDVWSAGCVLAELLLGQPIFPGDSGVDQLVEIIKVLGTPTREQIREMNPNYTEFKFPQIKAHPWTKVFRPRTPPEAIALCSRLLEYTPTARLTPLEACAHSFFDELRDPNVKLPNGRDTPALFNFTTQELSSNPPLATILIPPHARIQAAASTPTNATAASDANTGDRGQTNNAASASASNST

PKCa + GSK3b = experiment: In vitro phosphorylation of nucleocapsid peptides, ADP-Glo, PKCa + GSK3b combined; type: biochemical, human; details: Mean ± S.Dev. (n = 3); no kinase control = 100
[9] = molecular target: T3, casein kinase 2-alpha-1 (CK2a1) (Homo sapiens, UniProt P68400); experiment: In vitro phosphorylation of nucleocapsid peptides, ADP-Glo, CK2a1; type: biochemical; details: peptide ~250 μM, 250 μM ATP, 30 min at 30° C.; duplicate measurements
T3 construct: GST; purchased SignalChem C70-10G
T3 sequence (P68400 whole entry): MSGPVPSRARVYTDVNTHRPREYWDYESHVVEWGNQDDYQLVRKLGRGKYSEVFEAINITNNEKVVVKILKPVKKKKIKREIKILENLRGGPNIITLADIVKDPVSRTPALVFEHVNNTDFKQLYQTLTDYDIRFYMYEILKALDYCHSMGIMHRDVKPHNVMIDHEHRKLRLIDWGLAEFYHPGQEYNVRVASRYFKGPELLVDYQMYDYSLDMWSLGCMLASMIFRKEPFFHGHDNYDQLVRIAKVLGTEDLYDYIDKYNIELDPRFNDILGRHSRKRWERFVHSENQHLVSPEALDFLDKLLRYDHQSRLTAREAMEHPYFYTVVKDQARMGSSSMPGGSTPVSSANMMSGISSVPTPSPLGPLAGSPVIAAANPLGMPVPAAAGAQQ

casein kinase 1-delta = molecular target: T4, casein kinase 1-delta (Homo sapiens, UniProt P48730); experiment: In vitro phosphorylation of nucleocapsid peptides, ADP-Glo, CK1d; type: biochemical; details: peptide ~250 μM, 250 μM ATP, 30 min at 30° C.; duplicate measurements
T4 construct: GST; purchased SignalChem C65-10G
T4 sequence (P48730 whole entry): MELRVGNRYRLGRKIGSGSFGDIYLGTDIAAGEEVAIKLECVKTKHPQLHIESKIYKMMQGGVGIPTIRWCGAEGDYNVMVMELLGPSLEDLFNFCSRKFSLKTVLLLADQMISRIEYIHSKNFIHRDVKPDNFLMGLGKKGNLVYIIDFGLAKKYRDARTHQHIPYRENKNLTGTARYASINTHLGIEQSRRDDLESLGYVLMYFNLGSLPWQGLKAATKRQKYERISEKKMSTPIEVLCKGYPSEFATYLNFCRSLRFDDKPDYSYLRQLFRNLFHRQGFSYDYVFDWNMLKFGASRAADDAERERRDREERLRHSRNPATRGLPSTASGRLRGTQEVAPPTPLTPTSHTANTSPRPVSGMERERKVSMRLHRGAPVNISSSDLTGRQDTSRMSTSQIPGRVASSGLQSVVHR

[10] = molecular target: cyclin-dependent kinase 2/cyclin A2 (CDK2/A2) (Homo sapiens, UniProt P24941); experiment: In vitro phosphorylation of nucleocapsid peptides, ADP-Glo, CDK2/cyclin A2; type: biochemical; details: peptide ~250 μM, 250 μM ATP, 30 min at 30° C.; duplicate measurements
[11] = molecular target: T5, casein kinase 1-alpha-1 (CK1a1) (Homo sapiens, UniProt P48729); experiment: In vitro phosphorylation of nucleocapsid peptides, ADP-Glo, CK1a1; type: biochemical; details: peptide ~250 μM, 250 μM ATP, 30 min at 30° C.; duplicate measurements
T5 construct: GST; purchased SignalChem C64-10G
T5 sequence (P48729 whole entry): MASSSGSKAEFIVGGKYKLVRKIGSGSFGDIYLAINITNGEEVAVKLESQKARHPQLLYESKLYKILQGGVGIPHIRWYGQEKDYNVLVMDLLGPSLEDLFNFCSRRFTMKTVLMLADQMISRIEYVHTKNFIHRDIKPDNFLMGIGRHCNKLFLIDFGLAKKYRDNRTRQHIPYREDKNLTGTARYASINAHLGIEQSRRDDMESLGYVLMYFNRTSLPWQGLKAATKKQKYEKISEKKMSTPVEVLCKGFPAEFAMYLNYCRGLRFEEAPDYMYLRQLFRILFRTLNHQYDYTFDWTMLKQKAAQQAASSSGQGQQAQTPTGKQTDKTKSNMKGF

[12] = molecular target: T6, extracellularly-regulated kinase-1 (ERK1) (Homo sapiens, UniProt P27361); experiment: In vitro phosphorylation of nucleocapsid peptides, ADP-Glo, ERK1; type: biochemical; details: peptide ~250 μM, 250 μM ATP, 30 min at 30° C.; duplicate measurements
T6 construct: GST; purchased SignalChem M29-10G
T6 sequence (P27361 whole entry): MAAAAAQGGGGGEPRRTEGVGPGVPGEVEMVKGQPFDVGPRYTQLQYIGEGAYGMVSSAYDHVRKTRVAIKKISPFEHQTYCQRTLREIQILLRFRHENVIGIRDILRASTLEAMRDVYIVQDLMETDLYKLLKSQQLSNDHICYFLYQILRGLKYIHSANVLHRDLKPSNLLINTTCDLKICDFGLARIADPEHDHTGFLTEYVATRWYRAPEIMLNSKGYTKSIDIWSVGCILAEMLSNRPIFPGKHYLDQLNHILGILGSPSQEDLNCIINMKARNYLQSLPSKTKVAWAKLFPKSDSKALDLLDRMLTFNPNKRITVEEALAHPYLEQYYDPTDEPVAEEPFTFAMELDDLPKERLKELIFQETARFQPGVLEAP

[13] = Z′ 0.3, read-out: SARS-CoV-2 inhibition (% dsRNA)
[14] = average of screens 1 and 2, read-out: Average SARS-CoV-2 Nucleocapsid inhibition
[15] = screen 1, Z′ 0.7, read-out: SARS-CoV-2 inhibition (% Nucleocapsid) 1
[16] = screen 2, Z′ 0.5, read-out: SARS-CoV-2 inhibition (% Nucleocapsid) 2

| Compound | inhibition at 10 µM (HCoV-229E [1]) [%] | inhibition at 10 µM (SARS-CoV-2 [2]; [13]) [%] | inhibition at 10 µM (SARS-CoV-2 [2]; [14]) [%] | inhibition at 10 µM (SARS-CoV-2 [2]; [15]) [%] | inhibition at 10 µM (SARS-CoV-2 [2]; [16]) [%] | Average cell loss (%) (Huh-7.5.1 cells) | Relative Phosphorylation to Autophosphorylation Control (set at 100), PKACa [6] | Relative Phosphorylation to No Kinase Control, PKCa [7] | Relative Phosphorylation to Autophosphorylation Control (set at 100), PKCa [7] | Relative Phosphorylation to No Kinase Control, GSK3b [8] | Relative Phosphorylation to Autophosphorylation Control (set at 100), GSK3b [8] | other results |
| --- | --- | --- | --- | --- | --- | --- | --- | --- | --- | --- | --- | --- |
| COc1ccc(-n2cnc3ccc(-c4nnc(SCc5cccc(C#N)c5)o4)cc32)cc1 [Compound P-0780332] | 0 | 0.6 | 0 | 0 | 0 | 9.2 |  |  |  |  |  | Activity (SARS-CoV-2) (SARS-CoV-2 [2]): inactive (see TABLE A) |
| CSc1ccc(-n2cnc3ccc(-c4nnc(CCc5cccc(C(F)(F)F)c5)o4)cc32)cc1 [Compound P-3817632] | 87.7 | 100 | 71.4 | 70.8 | 72 | 12.7 |  |  |  |  |  | Activity (SARS-CoV-2) (SARS-CoV-2 [2]): active (see TABLE A) |
| O=C(NCc1ccccn1)Nc1cc(N2CC(CCc3ccccc3)CC2=O)ccn1 (centres unmarked) [Compound P-4423632] | 43.2 | 100 | 95.2 | 98 | 92.4 | 12.0 |  |  |  |  |  | Activity (SARS-CoV-2) (SARS-CoV-2 [2]): active (see TABLE A) |
| Cc1nnc(-c2ccc3occ(-c4ccc([S+](C)[O-])c(OC(F)(F)F)c4)c3c2)o1 (centres unmarked) [Compound P-5782442] | 60 | 100 | 93.8 | 93.3 | 94.4 | 16.1 |  |  |  |  |  | Activity (SARS-CoV-2) (SARS-CoV-2 [2]): active (see TABLE A) |
| C[S+]([O-])c1ccc(-c2coc3ccc(-c4nnc(SCc5cccc(F)c5)o4)cc23)cc1 (centres unmarked) [Compound P-7657632] | 100 | 100 | 93.1 | 100 | 86.2 | 25.4 |  |  |  |  |  | EC50 (SARS-CoV-2 [3]): ~3 µM; EC50 (HCoV-229E [4]): ~3 µM |
| CSc1ccc(-c2coc3ccc(-c4nnc(N)o4)cc23)cc1Cl [Compound P-9071942] | 94.2 | 100 | 94.5 | 100 | 89.1 | 29.9 |  |  |  |  |  | EC50 (SARS-CoV-2 [3]): ~3 µM; EC50 (HCoV-229E [4]): ~3 µM |
| Cn1cc(C2=C(c3cn(C4CCN(Cc5ccccn5)CC4)c4ccccc34)C(=O)NC2=O)c2ccccc21 [Enzastaurin] |  |  |  |  |  |  |  |  |  |  |  | effect on infection (SARS-CoV-2 [5]; A549-ACE2 human lung cancer-derived cell line and Vero E6 cells, reference [7]): reduced infection; effect on N protein phosphorylation and SARS-CoV-2 replication (SARS-CoV-2 [5]; reference [7]): blocked N protein phosphorylation and SARS-CoV-2 replication |
| [Cl-].[Li+] [Lithium chloride] |  |  |  |  |  |  |  |  |  |  |  | IC50 (SARS-CoV-2 [5]; from reference [7], read-out: IC50 to inhibit N protein phosphorylation and SARS-CoV-2 replication in cells): 10000 µM |
| RGGSQASSRSS(pS)RS (RGGSQASSRSS[pS]RS) [SCV2-N [177-190]-pS188, synthetic peptide modeled after SARS-CoV-2 nucleocapsid protein phosphorylation sites, pre-phosphorylated at S188] |  |  |  |  |  |  | 128 | 3861 ± 71 | 389 | 24,585 ± 645 | 1209 |  |
| RGGSQASSRSSSRS [SCV2-N [177-190], synthetic peptide modeled after SARS-CoV-2 nucleocapsid protein phosphorylation sites] |  |  |  |  |  |  | 162 | 13,714 ± 502 | 1320 | 2161 ± 63 | 107 | Relative Phosphorylation to No Kinase Control, PKCa + GSK3b (PKCa + GSK3b): 3572 ± 22 |
| SQASSRSSSR(pS)RNS (SQASSRSSSR[pS]RNS) [SCV2-N [180-193]-pS190, synthetic peptide modeled after SARS-CoV-2 nucleocapsid protein phosphorylation sites, pre-phosphorylated at S190] |  |  |  |  |  |  | 312 | 4161 ± 66 | 418 | 2957 ± 3 | 111 | Relative Phosphorylation to Autophosphorylation Control (set at 100), CK2a1 [9]: 100 |
| SQASSRSSSRSRNS [SCV2-N [180-193], synthetic peptide modeled after SARS-CoV-2 nucleocapsid protein phosphorylation sites] |  |  |  |  |  |  | 123 | 16,366 ± 261 | 1278 | 2407 ± 23 | 102 | Relative Phosphorylation to Autophosphorylation Control (set at 100), CK2a1 [9]: 101; Relative Phosphorylation to No Kinase Control, PKCa + GSK3b (PKCa + GSK3b): 3836 ± 41 |
| SSRSRNSSRNS(pT)PG (SSRSRNSSRNS[pT]PG) [SCV2-N [187-200]-pT198, synthetic peptide modeled after SARS-CoV-2 nucleocapsid protein phosphorylation sites, pre-phosphorylated at T198] |  |  |  |  |  |  | 157 | 7032 ± 319 | 553 | 23,031 ± 486 | 1042 | Relative Phosphorylation to Autophosphorylation Control (set at 100), CK1d (casein kinase 1-delta): 152; Relative Phosphorylation to Autophosphorylation Control (set at 100), CDK2 + Cyclin A2 [10]: 101; Relative Phosphorylation to Autophosphorylation Control (set at 100), CK1a1 [11]: 250; Relative Phosphorylation to Autophosphorylation Control (set at 100), CK2a1 [9]: 102; Relative Phosphorylation to Autophosphorylation Control (set at 100), ERK1 [12]: 100 |
| SSRSRNSSRNSTPG [SCV2-N [187-200], synthetic peptide modeled after SARS-CoV-2 nucleocapsid protein phosphorylation sites] |  |  |  |  |  |  | 485 | 12,687 ± 486 | 1080 | 2573 ± 49 | 108 | Relative Phosphorylation to Autophosphorylation Control (set at 100), CK1d (casein kinase 1-delta): 100; Relative Phosphorylation to Autophosphorylation Control (set at 100), CDK2 + Cyclin A2 [10]: 100; Relative Phosphorylation to Autophosphorylation Control (set at 100), CK1a1 [11]: 145; Relative Phosphorylation to Autophosphorylation Control (set at 100), CK2a1 [9]: 103; Relative Phosphorylation to Autophosphorylation Control (set at 100), ERK1 [12]: 100; Relative Phosphorylation to No Kinase Control, PKCa + GSK3b (PKCa + GSK3b): 3692 ± 61 |
